# Laboratory results as given in patent publication US20210060033A1, “ORALLY ADMINISTERED COMBINATIONS OF BETA-LACTAM ANTIBIOTICS AND AVIBACTAM DERIVATIVES FOR TREATING BACTERIAL INFECTIONS” (priority 2019, published 2021).
# Read-outs that look alike come from different tables or passages of the source.
# What was measured:
# [1] = in vivo; cited from earlier work
# [2] = dog, in vivo; cited from earlier work
# [3] = cynomolgus monkey, in vivo; cited from earlier work
# [4] = rat, in vivo, po; cited from earlier work
# 314 Enterobacteriaceae = format: cell-based; settings: for MIC90 with addition of avibactam: all isolates combined, avibactam at a fixed concentration of 4 μg/mL; for Estimated MIC90: Enterobacteria n = 314 (all isolates combined), avibactam or clavulanic acid fixed at 4 μg/mL in combinations
# [5] = tested on: KPC-positive isolates (n = 23); format: cell-based, Enterobacteriaceae; settings: for Estimated MIC90: KPC n = 23, avibactam or clavulanic acid fixed at 4 μg/mL in combinations; for MIC90 with addition of avibactam: KPC-positive isolates, avibactam 4 μg/mL
# [6] = tested on: pAmpC (PlasAmpC) isolates (n = 20); format: cell-based, Enterobacteriaceae; settings: pAmpC n = 20; avibactam or clavulanic acid fixed at 4 μg/mL in combinations
# [7] = tested on: OXA-positive isolates (n = 22); format: cell-based, Enterobacteriaceae; settings: for Estimated MIC90: OXA n = 22, avibactam or clavulanic acid fixed at 4 μg/mL in combinations; for MIC90 with addition of avibactam: OXA-positive isolates, avibactam 4 μg/mL
# [8] = tested on: ESBL-positive isolates (n = 28); format: cell-based, Enterobacteriaceae; settings: ESBL n = 28; avibactam or clavulanic acid fixed at 4 μg/mL in combinations
# [9] = Single ascending oral dose phase 1 study of avibactam derivative (3) (Example 3), avibactam PK; format: in vivo, human; settings: avibactam in plasma, fed
# Experimental: The pharmacokinetics of avibactam provided as an orally administered avibactam derivative was determined on healthy human volunteers. A randomized, double-blind, placebo-controlled single ascending dose phase 1 study was undertaken with healthy male and female adults. […] Plasma and urine PK samples were collected prior to dosing and at frequent intervals after dosing. […] FIG. 12 also provides an overall estimate of F for the study population (n=24) presented as a conventional box-whisker graphic (median, interquartile range [25-75%] and Tukey whiskers).
# [10] = Oral administration of avibactam derivative (3) to healthy human volunteers (Example 2), plasma avibactam; format: in vivo; settings: for AUC0-INF: unit not given
# Experimental: The pharmacokinetics of avibactam provided as an orally administered avibactam derivative was determined on healthy human volunteers.
# […] The plasma concentration of avibactam was measured. The free avibactam concentration was adjusted for from 5% to 8% protein binding (AUCfree=AUC0-inf×[…]).
# [11] = avibactam, oral 300 mg of avibactam derivative (3), healthy
compound,measurement,setting,value
"CC(C)(COS(=O)(=O)ON1C(=O)N2C[C@H]1CC[C@H]2C(N)=O)C(=O)OCc1ccccc1 [avibactam derivative (4), benzyl 3-(((((1R,2S,5R)-2-carbamoyl-7-oxo-1,6-diazabicyclo[3.2.1]octan-6-yl)oxy)sulfonyl)oxy)-2,2-dimethylpropanoate]",oral bioavailability (% F),[1],greater than 10 % F
"COC(=O)C(C)(C)COS(=O)(=O)ON1C(=O)N2C[C@H]1CC[C@H]2C(N)=O [avibactam derivative (10), methyl 3-(((((1R,2S,5R)-2-carbamoyl-7-oxo-1,6-diazabicyclo[3.2.1]octan-6-yl)oxy)sulfonyl)oxy)-2,2-dimethylpropanoate]",oral bioavailability (% F),[1],greater than 10 % F
"CC(C)OC(=O)C(C)(C)COS(=O)(=O)ON1C(=O)N2C[C@H]1CC[C@H]2C(N)=O [avibactam derivative (11), isopropyl 3-(((((1R,2S,5R)-2-carbamoyl-7-oxo-1,6-diazabicyclo[3.2.1]octan-6-yl)oxy)sulfonyl)oxy)-2,2-dimethylpropanoate]",oral bioavailability (% F),[1],greater than 10 % F
"CCCCCCOC(=O)C(C)(C)COS(=O)(=O)ON1C(=O)N2C[C@H]1CC[C@H]2C(N)=O [avibactam derivative (12), hexyl 3-(((((1R,2S,5R)-2-carbamoyl-7-oxo-1,6-diazabicyclo[3.2.1]octan-6-yl)oxy)sulfonyl)oxy)-2,2-dimethylpropanoate]",oral bioavailability (% F),[1],greater than 10 % F
"CCCCCCCOC(=O)C(C)(C)COS(=O)(=O)ON1C(=O)N2C[C@H]1CC[C@H]2C(N)=O [avibactam derivative (13), heptyl 3-(((((1R,2S,5R)-2-carbamoyl-7-oxo-1,6-diazabicyclo[3.2.1]octan-6-yl)oxy)sulfonyl)oxy)-2,2-dimethylpropanoate]",oral bioavailability (% F),[1],greater than 10 % F
same,avibactam oral bioavailability,[2],greater than 50 % F
same,avibactam oral bioavailability,[3],greater than 50 % F
"CC(C)(C)OC(=O)C(C)(C)COS(=O)(=O)ON1C(=O)N2C[C@H]1CC[C@H]2C(N)=O [avibactam derivative (14), tert-butyl 3-(((((1R,2S,5R)-2-carbamoyl-7-oxo-1,6-diazabicyclo[3.2.1]octan-6-yl)oxy)sulfonyl)oxy)-2,2-dimethylpropanoate]",oral bioavailability (% F),[1],greater than 10 % F
"CCCCCCOC(=O)CCC(C)(C)COS(=O)(=O)ON1C(=O)N2C[C@H]1CC[C@H]2C(N)=O [avibactam derivative (36), hexyl 5-(((((1R,2S,5R)-2-carbamoyl-7-oxo-1,6-diazabicyclo[3.2.1]octan-6-yl)oxy)sulfonyl)oxy)-4,4-dimethylpentanoate]",avibactam oral bioavailability (% F),[4],greater than 10 % F
"CCCCCCCOC(=O)CCC(C)(C)COS(=O)(=O)ON1C(=O)N2C[C@H]1CC[C@H]2C(N)=O [avibactam derivative (37), heptyl 5-(((((1R,2S,5R)-2-carbamoyl-7-oxo-1,6-diazabicyclo[3.2.1]octan-6-yl)oxy)sulfonyl)oxy)-4,4-dimethylpentanoate]",avibactam oral bioavailability (% F),[4],greater than 10 % F
"CCCOC(=O)C(C)(C)COS(=O)(=O)ON1C(=O)N2C[C@H]1CC[C@H]2C(N)=O [avibactam derivative (57), propyl 3-(((((1R,2S,5R)-2-carbamoyl-7-oxo-1,6-diazabicyclo[3.2.1]octan-6-yl)oxy)sulfonyl)oxy)-2,2-dimethylpropanoate]",avibactam oral bioavailability (% F),[4],greater than 10 % F
"CCCCOC(=O)C(C)(C)COS(=O)(=O)ON1C(=O)N2C[C@H]1CC[C@H]2C(N)=O [avibactam derivative (58), butyl 3-(((((1R,2S,5R)-2-carbamoyl-7-oxo-1,6-diazabicyclo[3.2.1]octan-6-yl)oxy)sulfonyl)oxy)-2,2-dimethylpropanoate]",avibactam oral bioavailability (% F),[4],greater than 10 % F
C[C@H]1[C@H](NC(=O)/C(=N\OC(C)(C)C(=O)O)c2csc(N)n2)C(=O)N1S(=O)(=O)O [aztreonam],MIC90 with addition of avibactam,314 Enterobacteriaceae,0.5 mg/L
C=CC1=C(C(=O)O)N2C(=O)[C@@H](NC(=O)/C(=N\OCC(=O)O)c3csc(N)n3)[C@H]2SC1 [cefixime],MIC90 with addition of avibactam,314 Enterobacteriaceae,1 mg/L
COCC1=C(C(=O)O)N2C(=O)[C@@H](NC(=O)/C(=N\OC)c3csc(N)n3)[C@H]2SC1 [cefpodoxime],Estimated MIC90,[5],>32 mg/L
same,Estimated MIC90,314 Enterobacteriaceae,>32 mg/L
same,MIC90 with addition of avibactam,314 Enterobacteriaceae,4 mg/L
same,Estimated MIC90,[6],>32 mg/L
same,Estimated MIC90,[7],>32 mg/L
same,Estimated MIC90,[8],>32 mg/L
C[C@@H](O)[C@H]1C(=O)N2C(C(=O)O)=C(S[C@H]3CC[S@@+]([O-])C3)S[C@H]12 [sulopenem],Estimated MIC90,[5],>32 mg/L
same,MIC90 with addition of avibactam,[5],1 mg/L
same,Estimated MIC90,314 Enterobacteriaceae,8 mg/L
same,MIC90 with addition of avibactam,314 Enterobacteriaceae,0.25 mg/L
same,Estimated MIC90,[6],0.5 mg/L
same,Estimated MIC90,[7],>32 mg/L
same,MIC90 with addition of avibactam,[7],1 mg/L
same,Estimated MIC90,[8],0.12 mg/L
C[C@@H](O)[C@H]1C(=O)N2C(C(=O)O)=C(SC3CN(C4=NCCS4)C3)[C@H](C)[C@H]12 [tebipenem],Estimated MIC90,[5],>32 mg/L
same,MIC90 with addition of avibactam,[5],1 mg/L
same,Estimated MIC90,314 Enterobacteriaceae,2 mg/L
same,MIC90 with addition of avibactam,314 Enterobacteriaceae,0.25 mg/L
same,Estimated MIC90,[6],0.25 mg/L
same,Estimated MIC90,[7],>32 mg/L
same,MIC90 with addition of avibactam,[7],1 mg/L
same,Estimated MIC90,[8],0.12 mg/L
"ethyl 3-(((((1R,2S,5R)-2-carbamoyl-7-oxo-1,6-diazabicyclo[3.2.1]octan-6-yl)oxy)sulfonyl)oxy)-2,2-dimethylpropanoate [avibactam derivative (3)]",oral bioavailability (% F),[1],greater than 10 % F
same,avibactam oral bioavailability,[2],greater than 50 % F
same,Thalf,[9]; single oral dose 300 mg,1.51 (0.24) h
same,Thalf,[9]; single oral dose 900 mg,2.65 (0.46) h
same,Thalf,"[9]; single oral dose 1,350 mg",2.33 (0.18) h
same,AUC0-INF,"[10]; First Quartile, avibactam",5.9
same,AUC0-INF,"[10]; Max, avibactam",10.9
same,AUC0-INF,"[10]; Mean, avibactam",7.6
same,AUC0-INF,"[10]; Min, avibactam",3.1
same,AUC0-INF,"[10]; ThirdQuartile, avibactam",10.1
same,AUCinf,[10]; [11],"about 7,600 ng×h/mL"
same,T1/2,[10]; [11],about 1.5 hours
same,T1/2,"[10]; oral 600 mg of avibactam derivative (3), healthy",about 1.5 hours
same,dose of IV avibactam approximated by the oral dose,[10]; orally administered dose not given,~400 mg
same,dose of IV avibactam approximated by the oral dose,[10]; orally administered dose of 300 mg,~62.5 mg
same,avibactam oral bioavailability,[3],greater than 50 % F
